Experimental data reported in PubChem BioAssay AID330 (DTP/NCI, 2004).
Values joined by “and” are separate entries in the source; they are usually repeats but may differ in a detail not shown here. Equal values may be shown once. Inconclusive results and toxic doses are left out. Rule for the calls: active = survival T/C of 150% or more; inactive = T/C below 125% in these data.

Tested on: P388 leukemia ip, CD2F1 mice, survival T/C
Test: NCI In Vivo Anticancer Drug Screen. Data for tumor model P388 Leukemia (intraperitoneal) in CD2F1 (CDF1) mice
Conditions: endpoint: median survival time, higher = longer survival
Summary of the method: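 Mice carrying the transplanted tumor received test compound or vehicle. Survival was recorded in each group, and the value is the treated-group measurement divided by that of the vehicle-treated control group.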

[1] = dose: 100.0 mg/kg/injection, schedule: Q01DX009 (ip), vehicle: saline with Tween-80
[2] = dose: 100.0 mg/kg/injection, schedule: Q04DX003 (ip), vehicle: saline with Tween-80
[3] = dose: 200.0 mg/kg/injection, schedule: Q01DX009 (ip), vehicle: saline with Tween-80
[4] = dose: 200.0 mg/kg/injection, schedule: Q04DX003 (ip), vehicle: saline with Tween-80
[5] = dose: 400.0 mg/kg/injection, schedule: Q04DX003 (ip), vehicle: saline with Tween-80
[6] = dose: 50.0 mg/kg/injection, schedule: Q01DX005 (ip), vehicle: Klucel (hydroxypropylcellulose) (HPC)
[7] = dose: 100.0 mg/kg/injection, schedule: Q01DX005 (ip), vehicle: Klucel (hydroxypropylcellulose) (HPC)
[8] = dose: 200.0 mg/kg/injection, schedule: Q01DX005 (ip), vehicle: Klucel (hydroxypropylcellulose) (HPC)
[9] = dose: 50.0 mg/kg/injection, schedule: Q01DX005 (ip), vehicle: saline
[10] = dose: 100.0 mg/kg/injection, schedule: Q01DX005 (ip), vehicle: saline
[11] = dose: 25.0 mg/kg/injection, schedule: Q01DX005 (ip), vehicle: saline
[12] = dose: 50.0 mg/kg/injection, schedule: Q01DX009 (ip), vehicle: saline with Tween-80
[13] = dose: 50.0 mg/kg/injection, schedule: Q01DX005 (ip), vehicle: saline with Tween-80
[14] = dose: 100.0 mg/kg/injection, schedule: Q01DX005 (ip), vehicle: saline with Tween-80
[15] = dose: 60.0 mg/kg/injection, schedule: Q01DX005 (ip), vehicle: saline with Tween-80
[16] = dose: 120.0 mg/kg/injection, schedule: Q01DX005 (ip), vehicle: saline with Tween-80
[17] = dose: 240.0 mg/kg/injection, schedule: Q01DX005 (ip), vehicle: saline with Tween-80
[18] = dose: 200.0 mg/kg/injection, schedule: Q01DX005 (ip), vehicle: saline with Tween-80

Measured: T/C

CCCCOCC(=O)OCCCC
inactive: [1] 109 % of control | [2] 110 % of control | [3] 118 % of control | [4] 115 % of control | dose: 400.0 mg/kg/injection, schedule: Q01DX009 (ip), vehicle: saline with Tween-80 95 % of control | [5] 100 % of control

Cc1cc(-c2ccc(Oc3ccc(Br)cc3)cc2)n[nH]c1=O
inactive: [6] 99 % of control | [7] 104 % of control | [8] 96 % of control

COC(=O)C(N)C(C)C (stereo not given)
inactive: [9] 100 % of control | [10] 92 % of control

Cc1cc(C2CCCCC2)n(O)c(=O)c1
inactive: [11] 100 % of control | [9] 99 % of control | [10] 106 % of control

COc1ccc(C(O)c2ncccc2C)cc1OC (stereo not given)
inactive: dose: 12.5 mg/kg/injection, schedule: Q01DX009 (ip), vehicle: water 102 % of control | dose: 25.0 mg/kg/injection, schedule: Q01DX009 (ip), vehicle: water 94 % of control | dose: 50.0 mg/kg/injection, schedule: Q01DX009 (ip), vehicle: water 99 % of control | dose: 100.0 mg/kg/injection, schedule: Q01DX009 (ip), vehicle: water 100 % of control | dose: 200.0 mg/kg/injection, schedule: Q01DX009 (ip), vehicle: water 101 % of control

CN(C)c1ccc(C2Sc3ccccc3S2)cc1
inactive: dose: 100.0 mg/kg/injection, schedule: Q01DX001 (ip), vehicle: Klucel (hydroxypropylcellulose) (HPC) 97 % of control | dose: 200.0 mg/kg/injection, schedule: Q01DX001 (ip), vehicle: Klucel (hydroxypropylcellulose) (HPC) 95 % of control | dose: 400.0 mg/kg/injection, schedule: Q01DX001 (ip), vehicle: Klucel (hydroxypropylcellulose) (HPC) 97 % of control

O=S1(=O)c2ccccc2C(O)(c2ccccc2)c2cc3ccccc3n21 (stereo not given)
inactive: [12] 93 % of control | [1] 96 % of control | [3] 92 % of control

CC1(C)CC(Nc2ccccc2)=CC(Nc2ccccc2)=N1
inactive: [6] 105 % of control | [7] 98 % of control | [8] 105 % of control

CC(=O)Cc1c(-c2ccccc2)nc(=S)[nH]c1C
inactive: dose: 50.0 mg/kg/injection, schedule: Q01DX009 (ip), vehicle: saline 100 % of control and 97 % of control | dose: 100.0 mg/kg/injection, schedule: Q01DX009 (ip), vehicle: saline 91 % of control and 92 % of control | dose: 200.0 mg/kg/injection, schedule: Q01DX009 (ip), vehicle: saline 100 % of control and 94 % of control and 96 % of control

CC1(C)[C@H]2Cc3c(ccc4c3C(=O)OC4=O)[C@@H]1C2
inactive: dose: 50.0 mg/kg/injection, schedule: Q01DX005 (ip), vehicle: Klucel + Tween-80 107 % of control | dose: 100.0 mg/kg/injection, schedule: Q01DX005 (ip), vehicle: Klucel + Tween-80 112 % of control

COc1ccc(CN2CCCN(/N=C/c3c4c(O)c5c(O)c(C)c6c(c5c3O)C(=O)C(C)(O/C=C/C(OC)C(C)C(OC(C)=O)C(C)C(O)C(C)C(O)C(C)/C=C/C=C(C)C(=O)N4)O6)CC2)cc1 (stereo not given)
inactive: dose: 12.5 mg/kg/injection, schedule: Q01DX009 (ip), vehicle: saline with Tween-80 109 % of control | dose: 25.0 mg/kg/injection, schedule: Q01DX009 (ip), vehicle: saline with Tween-80 117 % of control | [12] 103 % of control and 97 % of control | [1] 100 % of control | [3] 97 % of control

COCCNC(=S)SCCN(C(C)C)C(C)C
inactive: [13] 104 % of control | [14] 106 % of control

CSCCOCc1cc(C)no1
inactive: [15] 100 % of control | [16] 100 % of control | [17] 100 % of control

C1CCOCCOCCOCCOCCOCCCCCC2(CC1)OCCO2
inactive: [13] 96 % of control | [14] 94 % of control | [18] 96 % of control

Nc1nc(N)c2cc(C=O)ccc2n1
inactive: dose: 0.39 mg/kg/injection, schedule: Q01DX009 (ip), vehicle: distilled water + Tween-80 100 % of control | dose: 0.78 mg/kg/injection, schedule: Q01DX009 (ip), vehicle: distilled water + Tween-80 101 % of control | dose: 1.56 mg/kg/injection, schedule: Q01DX009 (ip), vehicle: distilled water + Tween-80 110 % of control | dose: 3.13 mg/kg/injection, schedule: Q01DX009 (ip), vehicle: distilled water + Tween-80 100 % of control | dose: 6.25 mg/kg/injection, schedule: Q01DX009 (ip), vehicle: distilled water + Tween-80 109 % of control

CCCCN1COC2CCCCC21 (stereo not given)
inactive: [11] 113 % of control | [10] 121 % of control

COc1cc(OC(=O)N(CCCl)N=O)cc(OC)c1OC
inactive: dose: 12.5 mg/kg/injection, schedule: Q01DX001 (ip), vehicle: Klucel (hydroxypropylcellulose) (HPC) 112 % of control | dose: 25.0 mg/kg/injection, schedule: Q01DX001 (ip), vehicle: Klucel (hydroxypropylcellulose) (HPC) 101 % of control | dose: 50.0 mg/kg/injection, schedule: Q01DX001 (ip), vehicle: Klucel (hydroxypropylcellulose) (HPC) 103 % of control

CN1NC(c2ccccc2)=C(C#N)C(=O)CC1c1ccco1 (stereo not given)
inactive: [15] 102 % of control | [16] 86 % of control | [17] 97 % of control

C=CC(C)(O)CS(=O)c1ccccc1 (stereo not given)
inactive: dose: 100.0 mg/kg/injection, schedule: Q04DX003 (ip), vehicle: saline 100 % of control | dose: 200.0 mg/kg/injection, schedule: Q04DX003 (ip), vehicle: saline 101 % of control | dose: 400.0 mg/kg/injection, schedule: Q04DX003 (ip), vehicle: saline 108 % of control

COc1ccc(N=C2SCC(=O)N2NC(=O)CN2C(=O)c3ccccc3C2=O)cc1
inactive: dose: 100.0 mg/kg/injection, schedule: Q01DX001 (ip), vehicle: saline with Tween-80 99 % of control | dose: 200.0 mg/kg/injection, schedule: Q01DX001 (ip), vehicle: saline with Tween-80 97 % of control | dose: 400.0 mg/kg/injection, schedule: Q01DX001 (ip), vehicle: saline with Tween-80 104 % of control

CN(C)CCCn1c2c(c3ccccc31)CCCCC2
inactive: [13] 97 % of control | [14] 101 % of control | [18] 94 % of control

COc1ccc(-c2cscc2N)cc1
inactive: dose: 60.0 mg/kg/injection, schedule: Q01DX005 (ip), vehicle: Klucel (hydroxypropylcellulose) (HPC) 114 % of control | dose: 120.0 mg/kg/injection, schedule: Q01DX005 (ip), vehicle: Klucel (hydroxypropylcellulose) (HPC) 118 % of control | dose: 240.0 mg/kg/injection, schedule: Q01DX005 (ip), vehicle: Klucel (hydroxypropylcellulose) (HPC) 97 % of control

CC(=O)OCC1OC2OC(C)(C)OC2C1O (stereo not given)
inactive: [9] 96 % of control | [10] 100 % of control | dose: 200.0 mg/kg/injection, schedule: Q01DX005 (ip), vehicle: saline 105 % of control

CC(=O)NC(CCSSCCC(NC(C)=O)C(=O)ON1C(=O)CCC1=O)C(=O)ON1C(=O)CCC1=O (stereo not given)
inactive: [13] 104 % of control | [14] 105 % of control | [18] 104 % of control

CC(=O)/C=C\c1ccc(Cl)cc1
inactive: [12] 100 % of control | [1] 91 % of control | [2] 113 % of control | [4] 98 % of control | [5] 91 % of control

O=C(CP(=O)(O)O)OC1CCCCC1
inactive: dose: 100.0 mg/kg/injection, schedule: Q01DX001 (ip), vehicle: saline 101 % of control | dose: 200.0 mg/kg/injection, schedule: Q01DX001 (ip), vehicle: saline 101 % of control | dose: 400.0 mg/kg/injection, schedule: Q01DX001 (ip), vehicle: saline 100 % of control
